Results reported in patent publication US20160296529A1, “AMINOTRIAZOLOPYRIDINE FOR USE IN THE TREATMENT OF INFLAMMATION, AND PHARMACEUTICAL COMPOSITIONS THEREOF” (priority 2012, published 2016).
“And” between values parts separate entries of the source, which are not always exact repeats. Identical values can stand only once. Like-named read-outs stand apart in the source and are kept apart here.

Legend:
JAK-STAT = JAK-STAT signalling assay (OSM-triggered pSTAT1(2)-luciferase reporter in HeLa cells); format: cell-based, human
Method: HeLa cells were maintained in Dulbecco's Modified Eagle's Medium (DMEM) containing 10% heat inactivated fetal calf serum, 100 U/mL penicillin and 100 μg/mL streptomycin. HeLa cells were used at 70% confluence for transfection. 20,000 cells in 87 μL cell culture medium were transiently transfected with 40 ng pSTAT1(2)-luciferase reporter (Panomics), 8 ng of LacZ reporter as internal control reporter and 52 ng of pBSK using 0.32 μL Jet-PEI (Polyplus) as transfection reagent per well in 96-well plate format. After overnight incubation at 37° C., 5% CO2, transfection medium was removed. 81 μL of DMEM+1.5% heat inactivated fetal calf serum was added. 9 μL compound at 10× concentration was added for 60 min and then 10 μL of human OSM (Peprotech) at 33 ng/mL final concentration.
The compound was tested in duplicate starting from 20 μM followed by a 1/3 serial dilution, 8 doses in total (20 μM-6.6 μM-2.2 μM-740 nM-250 nM-82 nM-27 nM-9 nM) in a final concentration of 0.2% DMSO.
After overnight incubation at 37° C., 5% CO2 cells were lysed by adding 100 μL lysis buffer/well (PBS, 0.9 mM CaCl2, 0.5 mM MgCl2, 10% Trehalose, 0.05% Tergitol NP9, 0.3% BSA).
40 μL of cell lysate was used to read β-galactosidase activity by adding 180 μL 11-Gal solution (30 μL ONPG 4 mg/mL+150 μL β-Galactosidase buffer (0.06 M Na2HPO4, 0.04 M NaH2PO4, 1 mM MgCl2)) for 20 min. The reaction was stopped by addition of 50 μL Na2CO3 1 M. Absorbance was read at 405 nm.
Luciferase activity was measured using 40 μL cell lysate plus 40 μL of Steadylite® as described by the manufacturer (Perkin Elmer), on the Envision (Perkin Elmer).
Omitting OSM was used as a positive control (100% inhibition). As negative control […] (0% inhibition) was used. The positive and negative controls were used to calculate z′ and ‘percent inhibition’ (PIN) values.
Percentage inhibition=((fluorescence determined in the presence of vehicle−fluorescence determined for sample with test compound present) divided by (fluorescence determined in the presence of vehicle−fluorescence determined for sample without trigger))*100.
PIN values were plotted for compounds tested in dose-response and EC50 values were derived.

[1] = tested on: IL-2-induced STAT5 phosphorylation (JAK1/JAK3 pathway); experiment: Human whole blood assay (hWBA), IL-2 stimulation, phospho-STAT5 on CD4+ cells; format: cell-based; details: 5 different donors
Method: A flow cytometry analysis was performed to establish JAK1 over JAK2 compound selectivity ex vivo using human whole blood. Therefore, blood is taken from human volunteers who gave informed consent. Blood is then equilibrated for 30 min at 37° C. under gentle rocking, then aliquoted in Eppendorf tubes. Compound is added at different concentrations and incubated at 37° C. for 30 min under gentle rocking and subsequently stimulated for 20 min at 37° C. under gentle rocking with interleukin 6 (IL-6) for JAK1-dependent pathway stimulation, Interferon alpha (IFNα) for JAK1/TYK2 pathway stimulation, interleukin 2 (IL-2) for JAK1/JAK3 pathway stimulation or GM-CSF for JAK2-dependent pathway stimulation. Phospho-STAT1 (for IL-6- and IFNα-stimulated cells) and phospho-STAT5 (for IL-2- and GM-CSF-stimulated cells) levels are then evaluated using FACS analysis. […]
Cells were then washed once with 1×PBS and analyzed on a FACSCanto II flow cytometer (BD Biosciences).
50,000 total events were counted and Phospho-STAT1 positive cells were measured after gating on CD4+ cells, in the lymphocyte gate for IL-6- and IFNα-stimulated cells. Phospho-STAT5 positive cells were measured after gating on CD4+ cells, in the lymphocyte gate for IL-2-stimulated cells. Phospho-STAT5 positive cells were measured after gating on CD33+ cells. […]

- IC50 (JAK-STAT; Homo sapiens, HeLa, average, read-out: IC50 (average)): > 7.43 µM
- IC50 (JAK-STAT; Homo sapiens, HeLa, individual determinations, read-out: IC50): > 6.67 µM
- IC50 (JAK-STAT; individual determinations): Non active
- IC50 (JAK-STAT; individual determinations, read-out: IC50): > 6.67 µM and 8.94 µM
- IC50 [1]: 19.6 µM
SMILES: Nc1nc2cccc(-c3ccc(CN4CCS(=O)(=O)CC4)cc3)n2n1 [Formula I, 5-[4-(1,1-Dioxothiomorpholin-4-ylmethyl)-phenyl]-[1,2,4]triazolo[1,5-a]pyridin-2-ylamine]
